Experiments:
[1] = molecular target: T1, Recombinant HCV polymerase (BK strain) (Hepatitis C virus genotype 1b, UniProt P26663); assay: HCV polymerase enzyme assay (radiometric [33P]-UTP incorporation); format: biochemical, HCV 1b
T1 construct: Recombinant HCV polymerase (BK strain) was expressed and purified from E. coli with a 21 amino acid C-terminal deletion; His6; made in house; host or cells: E. coli
Procedure: Compounds were tested for inhibition of HCV polymerase using a radiometric [^33P]-UTP incorporation assay and a biotinylated U13:PolyA primer:template RNA substrate.
Recombinant HCV polymerase (BK strain) was expressed and purified from E. coli with a 21 amino acid C-terminal deletion and a His6-tag. The general assay buffer consisted of 20 mM Tris (pH 7.5), 25 mM KCl, 5 mM MgCl2, 3 mM DTT, 0.5 mg/ml BSA, 0.01% Tween20. The standard reaction, in 96 well plates, contained 10 μl of diluted compound, 50 μl of substrate and 40 μl of enzyme. Compounds, supplied as 10 mM stocks in DMSO, were diluted initially in neat DMSO, and subsequently buffer was added to give a DMSO concentration of 30%; 10 μl of this was added to the assay plate to give a final concentration in the 100 μl assay of 3% DMSO. The biotinylated U13:PolyA RNA substrate was pre-annealed with 40 μM 5′-biotinylated U13 (Dharmacon) and 213 μg/ml PolyA (Amersham Biosciences) in water incubated at 70° C. for 5 minutes before being cooled on ice. Substrate (50 μl) was added in buffer to give a final concentration in the 100 μl assay of 125 nM biotinylated U13:0.63 μg/ml PolyA and 200 nM UTP with 0.4 μCi [^33P]-UTP per well (Perkin Elmer). The reaction was initiated by the addition of 40 μl of enzyme in buffer to give 100 nM final concentration. The reaction was incubated at 25° C. for 100 minutes and then stopped by addition of 100 μl of 100 mM EDTA. The samples were then transferred to 96 well Streptavidin-coated FlashPlates (Perkin Elmer) and incubated at room temperature for ˜1 hour to allow binding to occur. The plates were then washed three times with phosphate-buffered saline containing 0.05% Tween20 in an automated plate washer to remove unincorporated [^33P]-UTP, and then counted in a
Each plate included a set of positive controls (no compound, maximum signal) and negative controls (no enzyme, minimum signal) and in each run at least one reference is compound was included to validate the assay. The IC50, concentration required to inhibit the enzyme activity by 50%, was calculated using an 8-point IC50 curve and fitted using the program XLfit (IDBS).

[2] = tested on: HCV replicon cells Huh 9B; assay: HCV replicon assay (luciferase); format: cell-based; conditions: Hepatitis C virus, reduction of replicon level by 50% vs untreated cell control, 72 h
Procedure: (§1) HCV replicon cells Huh 9B (ReBlikon), containing the firefly luciferase—ubiquitin—neomycin phosphotransferase fusion protein and EMCV-IRES driven HCV polyprotein with cell culture adaptive mutations.
(§2) Cells were cultured at 37° C. in a 5% CO2 environment and split twice a week on seeding at 2×10^6 cells/flask on day 1 and 1×10^6 3 days later. G418 at 0.5 mg/ml was added to the culture medium but not the assay medium. The culture medium consisted of DMEM with […] glucose and glutamax (Gibco 61965-026) supplemented with 1×non-essential amino acids (Invitrogen 11140-035), penicillin (100 IU/ml)/streptomycin (100 μg/ml) (Invitrogen 15140-122), FCS (10%, 50 ml) and […] (Invitrogen 10131-027) & 10% Australian foetal calf serum (Invitrogen 10099-141).
(§3) A flask of cells was trypsinised and a cell count carried out. Cells were diluted to 100,000 cells/ml and 100 μl of this used to seed one opaque white 96-well plate (for the replicon assay) and one flat-bottomed clear plate (for the tox assay) for every five compounds to be tested for IC50. Wells G12 and H12 were left empty in the clear plate as the blank. Plates were then incubated at 37° C. in a 5% CO2 environment for 24 h.
(§4) On the following day compound dilutions are made up in medium at twice their desired final concentration in a clear round bottomed plate. All dilutions have a final DMSO concentration of 1%.
(§5) Once the dilution plate had been made up, controls and compounds were transferred to the assay plates (containing the cells) at 100 μl/well in duplicate wells. Exception: no compound was added to wells A1 and A2 of either plate and 100 μl of 1% DMSO was added to these instead. Plates were then incubated at 37° C. with 5% CO2 for 72 h.
At the end of the incubation time, the cells in the white plate were harvested by washing in PBS (100 μL per well) and gently tapping dry before addition of […] of lysis buffer (25 mM tris-phosphate, 8 mM MgCl2, 1 mM DTT, 1% Triton X-100, 15% glycerol. pH to 7.8 using KH2PO4 prior to triton and glycerol addition. Substrate was prepared: 23.5 mM beetle luciferin (Promega E1603), 26 mM ATP (Sigma O-2060) in […] Tris buffer pH 7.8 aliquoted and stored at −80° C. was thawed and diluted 1:50 in luciferase assay buffer (20 mM Tricine (Sigma T-0377), 1.07 mM magnesium carbonate hydroxide (Sigma M-5671), 0.1 mM EDTA (Sigma E-5134), 2.67 mM MgSO4(BDH 101514Y), 33.3 mM dithiothreitol (Sigma 150460) pH 7.8).
The M injector of the microplate luminometer (Lmax, Molecular Devices) was primed with 5×300 μl injections of the diluted substrate. After 5-60 min incubation in lysis buffer at room temperature, a plate was inserted into the luminometer and 100 μl luciferase assay reagent was added by the injector on the luminometer. The signal was measured using a 1 second delay followed by a 4 second measurement programme. The IC50, the concentration of the drug required for reducing the replicon level by 50% in relation to the untreated cell control value, can be calculated from the plot of the percentage reduction of the luciferase activity vs. drug concentration.

[3] = tested on: HCV replicon cells Huh 9B; format: cell-based; conditions: concentration reducing total cell area by 50% relative to DMSO controls; 72 h
Procedure: as §1, §2, §3, §4, §5
The clear plate was stained with 100 μl 0.5% methylene blue in 50% ethanol at room temperature for lh, followed by solvation of the absorbed methylene blue in 100 μl per well of 1% lauroylsarcosine. Absorbance of the plate was measured on a microplate spectrophotometer (Molecular Devices) and the absorbance for each concentration of compound expressed as a proportion of the relative DMSO control. The TD50, the concentration of drug required to reduce the total cell area by 50% relative to the DMSO controls, can be calculated by plotting the absorbance at 620 nm minus background against drug concentration.

T1 sequence (P26663 2420-2989): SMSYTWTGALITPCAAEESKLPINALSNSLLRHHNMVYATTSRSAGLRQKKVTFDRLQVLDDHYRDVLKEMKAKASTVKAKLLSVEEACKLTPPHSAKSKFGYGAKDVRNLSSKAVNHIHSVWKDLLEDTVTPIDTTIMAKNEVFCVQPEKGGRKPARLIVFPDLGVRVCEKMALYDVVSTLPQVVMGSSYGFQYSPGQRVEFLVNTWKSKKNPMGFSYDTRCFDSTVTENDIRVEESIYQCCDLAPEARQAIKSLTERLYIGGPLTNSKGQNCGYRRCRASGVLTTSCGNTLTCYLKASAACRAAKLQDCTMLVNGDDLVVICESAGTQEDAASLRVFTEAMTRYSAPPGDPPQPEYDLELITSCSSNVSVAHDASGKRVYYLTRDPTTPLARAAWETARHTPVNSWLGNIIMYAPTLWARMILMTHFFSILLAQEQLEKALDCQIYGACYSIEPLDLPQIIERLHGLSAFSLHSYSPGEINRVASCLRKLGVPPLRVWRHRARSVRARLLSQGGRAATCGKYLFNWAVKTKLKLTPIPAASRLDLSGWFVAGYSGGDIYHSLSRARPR

SMILES	IC50 [1]	IC50 [2]	Replicon Assay Value TD50 [3]
COCCOc1ccc(Cl)cc1C(=O)N[C@@H]1N=C(c2c(Cl)cc(Cl)cc2Cl)c2ccccc2NC1=O [Example 60, (R)-5-Chloro-2-(2-methoxyethoxy)-N-(2-oxo-5-(2,4,6-trichlorophenyl)-2,3-dihydro-1H-benzo[e][1,4]diazepin-3-yl)benzamide]	27700 nM	798 nM	>25 µM
COCCOc1ncccc1C(=O)NC1N=C(c2c(Cl)cc(Cl)cc2Cl)c2ccccc2NC1=O (stereo not drawn) [Example 31, 2-(2-Methoxyethoxy)-N-(2-oxo-5-(2,4,6-trichlorophenyl)-2,3-dihydro-1H-benzo[e][1,4]diazepin-3-yl)nicotinamide]	248 nM	234 nM	>25 µM
CCOc1cc(Cl)cc(Cl)c1C1=N[C@H](NC(=O)c2cc(F)ccc2OCCOC)C(=O)Nc2ccccc21 [Example 69, (S)—N-(5-(2,4-Dichloro-6-ethoxyphenyl)-2-oxo-2,3-dihydro-1H-benzo[e][1,4]diazepin-3-yl)-5-fluoro-2-(2-methoxyethoxy)benzamide]	79.2 nM	31.3 nM	17.731 µM
CCOCCOc1ncc(F)cc1C(=O)NC1N=C(c2c(Cl)cc(Cl)cc2OCC)c2ccccc2NC1=O (stereo not drawn) [Example 58, N-(5-(2,4-Dichloro-6-ethoxyphenyl)-2-oxo-2,3-dihydro-1H-benzo[e][1,4]diazepin-3-yl)-2-(2-ethoxyethoxy)-5-fluoronicotinamide]	69 nM	9.9 nM	11.875 µM
COCCOc1ccc(F)cc1C(=O)NC1N=C(c2c(Cl)cc(Cl)cc2Cl)c2ccccc2NC1=O (stereo not drawn) [Example 16, 5-Fluoro-2-(2-methoxyethoxy)-N-(2-oxo-5-(2,4,6-trichlorophenyl)-2,3-dihydro-1H-benzo[e][1,4]diazepin-3-yl)benzamide]	119 nM	38.7 nM	22.094 µM
CCOCCOc1ncc(F)cc1C(=O)N[C@H]1N=C(c2c(Cl)cc(Cl)cc2Cl)c2ccccc2NC1=O [Example 65, (S)-2-(2-Ethoxyethoxy)-5-fluoro-N-(2-oxo-5-(2,4,6-trichlorophenyl)-2,3-dihydro-1H-benzo[e][1,4]diazepin-3-yl)nicotinamide]	32.3 nM	4.8 nM	10.854 µM
COCCOc1ccc(Cl)cc1C(=O)NC1N=C(c2c(Cl)cc(Cl)cc2CN2CCOCC2)c2ccccc2NC1=O (stereo not drawn) [Example 49, 5-Chloro-N-(5-(2,4-dichloro-6-(morpholinomethyl)phenyl)-2-oxo-2,3-dihydro-1H-benzo[e][1,4]diazepin-3-yl)-2-(2-methoxyethoxy)benzamide]	829 nM	167 nM	11.02 µM
COCCOc1ncc(F)cc1C(=O)NC1N=C(c2c(Cl)cc(Cl)cc2CN2CCOCC2)c2ccccc2NC1=O (stereo not drawn) [Example 52, N-(5-(2,4-Dichloro-6-(morpholinomethyl)phenyl)-2-oxo-2,3-dihydro-1H-benzo[e][1,4]diazepin-3-yl)-5-fluoro-2-(2-methoxyethoxy)nicotinamide]	605 nM	129 nM	24.829 µM
CCOc1cc(Cl)cc(Cl)c1C1=NC(NC(=O)c2cc(F)cnc2OCCOC)C(=O)Nc2ccccc21 (stereo not drawn) [Example 57, N-(5-(2,4-Dichloro-6-ethoxyphenyl)-2-oxo-2,3-dihydro-1H-benzo[e][1,4]diazepin-3-yl)-5-fluoro-2-(2-methoxyethoxy)nicotinamide]	72 nM	20.3 nM	22.698 µM
COCCOCCOc1ncc(F)cc1C(=O)NC1N=C(c2c(Cl)cc(Cl)cc2Cl)c2ccccc2NC1=O (stereo not drawn) [Example 37, 5-Fluoro-2-(2-(2-methoxyethoxy)ethoxy)-N-(2-oxo-5-(2,4,6-trichlorophenyl)-2,3-dihydro-1H-benzo[e][1,4]diazepin-3-yl)nicotinamide]	102 nM	263 nM	23.09 µM
COCCOc1ccc(Cl)cc1C(=O)NC1N=C(c2c(Cl)cccc2Cl)c2ccccc2NC1=O (stereo not drawn) [Example 47, 5-Chloro-N-(5-(2,6-dichlorophenyl)-2-oxo-2,3-dihydro-1H-benzo[e][1,4]diazepin-3-yl)-2-(2-methoxyethoxy)benzamide]	149 nM	583 nM	>25 µM
COCCNc1ncc(F)cc1C(=O)NC1N=C(c2c(Cl)cc(Cl)cc2Cl)c2ccccc2NC1=O (stereo not drawn) [Example 42, 5-Fluoro-2-(2-methoxyethylamino)-N-(2-oxo-5-(2,4,6-trichlorophenyl)-2,3-dihydro-1H-benzo[e][1,4]diazepin-3-yl)nicotinamide]	969 nM	2640 nM	17.784 µM
CCS(=O)(=O)NCCCOc1ccc(Cl)cc1C(=O)NC1N=C(c2c(Cl)cc(Cl)cc2Cl)c2ccccc2NC1=O (stereo not drawn) [Example 28, 5-chloro-2-(3-(ethylsulfonamido)propoxy)-N-(2-oxo-5-(2,4,6-trichlorophenyl)-2,3-dihydro-1H-benzo[e][1,4]diazepin-3-yl)benzamide]	850 nM	2130 nM	8.004 µM
COCCOc1ccc(Br)cc1C(=O)NC1N=C(c2c(Cl)cc(Cl)cc2Cl)c2ccccc2NC1=O (stereo not drawn) [Example 20, 5-Bromo-2-(2-methoxyethoxy)-N-(2-oxo-5-(2,4,6-trichlorophenyl)-2,3-dihydro-1H-benzo[e][1,4]diazepin-3-yl)benzamide]	535 nM	195 nM	>25 µM
